{"source": "patent US20070037887A1", "about": "“Blockade of mtor to prevent a hormonal adaptive response” (University of Virginia Patent Foundation, priority 2003, published 2007)", "key": {"MCF-7 cells": {"test_system": "MCF-7 cells", "experiment": "[3H] thymidine incorporation into DNA, MCF-7 cells", "format": "cell-based, human", "experimental": "(§1) FIGS. 5A & 5B represent the effect of FTS on DNA synthesis in MCF-7 (FIG. 5A) and LTED (FIG. 5B) cells. One hundred thousand cells were plated into each well of 24-well plates. Two days later, the cells were re-fed with IMEM containing 5% DCC-FBS. After another two days, cells were treated in quadruplicate with the compounds indicated for 18 hours. [^3H] thymidine (1 μCi/well) was added during the last 2 h of incubation. [^3H] thymidine incorporated into DNA was normalized by protein content.\n(§2) The inhibitory effect of FTS on cell growth may be the result of inhibition of cellular proliferation, induction of apoptosis, or both. To determine the mechanism by which FTS inhibits cell growth, FTS's effect on DNA synthesis and apoptosis was investigated. […] Estradiol (10^−10 M) increased [^3H] thymidine incorporation by 2.6 fold compared to the control level in MCF-7 cells."}, "LTED cells": {"test_system": "LTED cells", "experiment": "[3H] thymidine incorporation into DNA, LTED cells", "format": "cell-based, human", "conditions": "FTS 75 μM, 18 hours", "experimental": "as §1, §2"}, "[1]": {"test_system": "ERK1/2 MAP kinase, Akt, p70 S6 kinase, PHAS-I phosphorylation in LTED cells", "experiment": "Western analysis of serum-stimulated kinase phosphorylation, LTED cells", "format": "cell-based, human", "experimental": "FIGS. 7A-7D represent data showing the effect of FTS on serum-stimulated activation of MAP kinase, PI3 kinase, and mTOR. Subconfluent MCF-7 and LTED cells grown in 60 mm dishes were treated with FTS in their culture media for 24 h. Cells were then harvested and cell lysate prepared. Phosphorylation of ERK1/2 MAP kinase (FIG. 7A), Akt at Ser^473 (FIG. 7B), p70 S6 kinase at Thr^389 (FIG. 7C), and PHAS-I at Ser^65 (FIG. 7D) was detected by Western analysis using specific antibodies and quantitated by densitometry scanning.\nFIGS. 10A-10D represent data showing the effect of FTS on serum- and growth factor-induced phosphorylation of p70 S6 kinase at Thr^229 in LTED cells (FIG. 10A). Comparison of FTS and LY 294002 (LY) on Thr^229 phosphorylation of p70 S6K induced by EGF (FIG. 10B; by same treatment as described in FIG. 8). Comparison of FTS and LY 294002 on […] phosphorylation of p70 S6K induced by IGF-1 (FIG. 10C; by same treatment as described in FIG. 8). FIG. 10D is graph displaying the time course of FTS (100 μM) effects on Thr^389 and Thr^229 phosphorylation of p70 S6K in LTED cells cultured in serum containing IMEM.\nThe levels of phosphorylated ERK1/2 MAPK, Akt (Ser^473), p70S6K (Thr^389) and PHAS-1 (Ser^65) were consistently elevated in LTED cells compared to those in wild type MCF-7 cells as indicated by Western blot analysis using specific antibodies against phosphorylated ERK 1/2 (FIG. 7A), Akt (FIG. 7B), p70S6 kinase (FIG. 7C) and PHAS-1 (FIG. 7D). […] (FIGS. 7C & 7D).\nIn contrast, LY294002 blocked growth factor induced Thr^229 phosphorylation in a dose- and time-dependent manner (FIGS. 10A and 10B). […] Therefore, FTS's effect on MTOR activity was investigated."}, "[2]": {"test_system": "ERK1/2, Akt, p70S6K, PHAS-1 phosphorylation in LTED cells", "experiment": "IGF-1 induced activation of MAP kinase, PI3 kinase and mTOR in LTED cells (Western)", "format": "cell-based, human", "experimental": "FIG. 9. represents data showing the effect of FTS on IGF-1 induced activation of MAP kinase, PI3 kinase, and mTOR in LTED cells. Subconfluent LTED cells grown in 60 mm dishes were serum starved for 24 h, pretreated with FTS (100 μM) or LY 294002 (LY, 20 μM) for 10, 30 or 60 min before addition of IGF-1 (20 ng/ml for 10 min). Cells were then harvested and cell lysates prepared. Phosphorylated and total kinases were detected by Western analysis using specific antibodies.\nLTED cells were pretreated with FTS (100 μM) or LY 294002 (20 μM) for 10, 30, and 60 min and then IGF-1 (20 ng/ml) was added for 10 min. […] The inhibitory effect was seen as early as 10 minutes of treatment whereas FTS induced no effect. In marked contrast, both FTS and Ly inhibited the phosphorylation of 4E BP-1, particularly at the 60 minute time point. (FIG. 9)."}, "PHAS-I": {"test_system": "PHAS-I", "experiment": "PHAS-I phosphorylation in 293T cells (SDS-PAGE mobility, PThr36/45 immunoblot)", "format": "cell-based", "conditions": "increasing concentrations, 1 h", "experimental": "FIG. 11A & 11B represent data showing FTS inhibits PHAS-I phosphorylation and promotes dissociation of the mTOR-raptor complex in 293T cells. 293T cells were transfected with pcDNA3AU1-mTOR, pcDNA33HARaptor, pcDNA33HA-mLST8, and pCMV-Tag3APHAS-I (FIG. 11A). After 18 h the cells were incubated for 1 h with increasing concentrations of FTS before extracts were prepared. A sample of each extract was subjected to SDS-PAGE and immunoblotted to detect PHAS-I or PThr^36/45. AU1-mTOR was also immunoprecipitated from each extract, and immune complexes were subjected to SDSPAGE and immunoblotted with mTAb2, to detect mTOR, and with anti-HA antibodies, to detect HA-mLST8 and HA-raptor. Nontransfected 293T cells were incubated with increasing concentrations of FTS for 1 h before extracts were prepared. mTOR was immunoprecipitated with mTAb1, and samples were subjected to SDS-PAGE.\nTo investigate the effects of FTS on mTOR function in 293T cells, changes in the phosphorylation of PHAS-I, a well characterized target of mTOR were monitored. Phosphorylation of Ser64 and Thr69 in PHAS-I causes a dramatic decrease in the mobility of the protein in SDS-PAGE, so that changes in the mobility provide an index of changes in phosphorylation state. […]"}, "[3]": {"conditions": "doses needed to inhibit tumor growth; cited from earlier work"}, "[4]": {"conditions": "FTS 100 μM, serum containing medium"}}, "data": [{"smiles": "CC(C)=CCC/C(C)=C/CC/C(C)=C/CSc1ccccc1C(=O)O", "note": "[FTS, farnesylthiosalicylic acid]", "values": [{"measurement": "[3H] thymidine incorporated into DNA", "setting": "MCF-7 cells; FTS 75 μM, 18 hours", "result": "significantly reduced"}, {"measurement": "estradiol-induced increase of [3H] thymidine incorporation", "setting": "MCF-7 cells; FTS with estradiol 10^−10 M", "result": "completely blocked"}, {"measurement": "[3H] thymidine incorporated into DNA", "setting": "LTED cells", "result": "significantly reduced"}, {"measurement": "time at which inhibition of Thr389 phosphorylation maximized", "setting": "[1]; [4]", "result": 24, "unit": "h"}, {"measurement": "time at which inhibition of Thr389 phosphorylation occurred", "setting": "[1]; [4]", "result": 2, "unit": "h"}, {"measurement": "Thr229 phosphorylation of p70 S6K", "setting": "[1]; FTS 100 μM, serum containing medium, time course", "result": "only slightly reduced"}, {"measurement": "phosphorylation of ERK1/2 MAPK, Akt (Ser473), p70S6K (Thr389) and PHAS-1 (Ser65)", "setting": "[1]; FTS 24 h in culture media", "result": "dose-dependently inhibited"}, {"measurement": "IGF-1 induced ERK1/2 phosphorylation", "setting": "[2]; FTS 100 μM or LY 294002 20 μM for 10, 30, 60 min, IGF-1 20 ng/ml 10 min", "result": "Neither FTS nor LY 294002 inhibited"}, {"measurement": "phosphorylation of 4E BP-1", "setting": "[2]; FTS 100 μM or LY 294002 20 μM, particularly at 60 minute time point", "result": "inhibited"}, {"measurement": "IGF-1 induced phosphorylation of Akt at Ser473 and p70S6K at Thr389", "setting": "[2]; FTS 100 μM or LY 294002 20 μM, IGF-1 20 ng/ml 10 min", "result": "no effect"}, {"measurement": "phosphorylation of PHAS-I (electrophoretic mobility)", "setting": "PHAS-I", "result": "decreased the phosphorylation"}, {"measurement": "reactivity of PHAS-I with PThr36/45 phosphospecific antibodies", "setting": "PHAS-I", "result": "markedly decreased"}, {"measurement": "animal weight", "setting": "[3]", "result": "does not cause a reduction of animal weight"}, {"measurement": "toxicity", "setting": "[3]", "result": "non-toxic"}]}]}
